The subject of the test is human BRAF^V600MUT (M229, M249, M395) or NRAS^Q61MUT (M202, M207, M245) melanoma cell lines. As to the kind of experiment: Long-term clonogenic growth: emergence of acquired MAPKi-resistant colonies (DTPPs) in parental melanoma cell lines under MAPKi. It counts as cell-based. The settings on record: for efficacy of co-treatment during the second half of the MAPKi treatment course: M229 (day 14-28) and M245 (day 15-30); for suppression of resistance with delayed co-treatment: M229 and M245, 3- to 3.5-week delay in co-treatment, FIGS. 4R and 4S; for sensitivity of M249 parental cell line to resistance suppression: M249, FIG. 4D; for prevention of DTPP formation / suppression of acquired MAPKi resistance: in combination with MAPKi (BRAFi+MEKi or MEKi), parental cell lines, FIG. 4. The protocol: FIGS. 4A-4U. DNA-PKi and/or PARPi co-treatment prevents acquired MAPKi-resistance in human melanoma cell lines. FIGS. 4A to 4O: Long-term clonogenic growth of isogenic parental and acquired MAPKi-resistant BRAF^V600MUT (4A to 4H) or NRAS^Q61MUT (4I to 4O) human melanoma cell lines showing acquired-resistant colonies to BRAFi+MEKi (PLX4032 at 0.5 mM, AZD6244 at 0.5 mM in 4A and 4G; PLX4032 at 0.25 mM, AZD6244 at 0.25 mM in 4D; PLX4032 at 1 mM, AZD6244 at 1 mM in 4B, 4C, 4E, 4F and 4H) or MEKi (trametinib at 0.005 mM in I and 0.01 mM in 4J and 4N; trametinib at 0.1 mM in 4K, 4M and 4O) and their suppression by indicated co-treatments with DNA-PKi (NU7026) and/or PARPi (ABT888) at indicated concentrations. Top, representative cultures; bottom, quantifications over n=4 fields (mean±SD). Data representative of 2 to 4 independent repeats. Seeding densities (cells/well in 6-well dishes) and culture durations (days): (4A) 5,000; 31, (4B) 1,000; 17, (4C) 5,000; 18, (4D) 40,000; 40, (4E) 5,000; 14, (4F) 5,000; 12, (4G) 20,000; 30, (4H) 20,000; 21, (4I) 40,000; 30, (4J) 50,000; 31, (4K) 5,000; 17, (4L) 5,000; 22, (4M) 5,000; 16, (4N) 20.000; 16, and (4O) 5,000; 16. Data representative of 2 to 4 independent repeats. FIGS. 4P and 4Q: Western blot, MTT assay (upper), and clonogenic growth assay (lower) of M245 cells transduced by lentivirus harboring shVector control or shRNAs of PRKDC (4P) or LIG4 (4Q). TUBULIN, loading control. Clonogenic growth with vehicle (14 days, 5,000 cells/well in 6-well dishes) or MEKi (29 days, 50,000 cells/well in 6-well dishes) treatments. MEKi, trametinib at 0.01 μM. Representative results of two independent experiments; quantification of n=4 fields (mean±SD). FIGS. 4R and 4S: As in 4A and 4J, respectively, except DNA-PKi and/or PARPi co-treatments were performed in M229 (4R) and M245 (4S) at a later stage of MAPKi treatment (see timepoint schema). Inhibitor concentrations for M229: BRAFi+MEKi (PLX4032 at 0.5 μM, AZD6244 at 0.5 μM), NU7026 (8 μM), ABT888 (4 μM) and NU7026+ABT888 (4 μM+4 μM). Inhibitor concentrations for M245: MEKi (trametinib at 0.01 μM), NU7026 (5 μM), ABT888 (1 μM) and NU7026+ABT888 (5 μM+1 μM). Left, representative cultures; right, quantifications over n=4 fields (mean±SD). Data representative of 2 independent repeats. FIGS. 4T and 4U: As in 4A and 4J, respectively, except DNA-PKi and/or PARPi co-treatments were performed in M229 (4T) and M245 cells (4U) at the same concentrations in R and S for the entire durations (day 1-28 in 4T; day 1-30 in 4U), the first half (day 1-14 in T; day 1-15 in 4U) or the second half (day 14-28 in 4T: day 15-30 in 4U) of the total treatment course. Top, representative cultures; bottom, quantifications over n=4 fields (mean±SD). Data representative of 2 independent repeats. P values (one-way ANOVA followed by Tukey's multiple comparison test) comparing indicated cultures versus MAPKi-only cultures (4A to 4O and 4R to 4U) or shVector culture (4P and 4Q): *, p<0.05; **, p<0.01: ***, p<0.001.
FIGS. 12A-12F. DNA-PKi and/or PARPi co-treatment prevents acquired MAPKi-resistance in human melanoma cell lines. FIGS. 12A to 12F: Long-term clonogenic growth of BRAF^V600MUT (12A, 12C and 12E) or NRAS^Q61MUT (12B, 12D and 12F) cell lines showing acquired-resistant colonies to BRAFi+MEKi (PLX4032 at 0.5 mM, AZD6244 at 0.5 mM for M229 and M395; PLX4032 at 0.25 mM, AZD6244 at 0.25 mM for M249) or MEKi (trametinib at 0.005 mM for M202 and 0.01 mM for M207 and M245) and their suppression by indicated co-treatments with DNA-PKi (VX984 in 12A and 12B; AZD7648 in 12C and 12D) and/or PARPi (olaparib in 12E and 12F) at indicated concentrations. Top, representative cultures; bottom, quantifications over n=4 fields (mean±SD). Data representative of 2 independent repeats. Seeding densities (cells/well in 6-well dishes) and culture durations (days): M202 (40,000, 30), M207 (20,000, 16), M229 (5,000, 32), M245 (50,000, 31), M249 (40,000, 40), and M395 (20,000, 30). […]

In the case of `C[C@]1(c2nc3c(C(N)=O)cccc3[nH]2)CCCN1` [ABT888, veliparib], the “suppression of resistance with delayed co-treatment” value is “reduced the suppression of resistance”, the “sensitivity of M249 parental cell line to resistance suppression” value is recorded as “highly sensitive to resistance suppression” and the “prevention of DTPP formation / suppression of acquired MAPKi resistance” value was “activity in 3 of 6 parental cell lines”. The “efficacy of co-treatment during the second half of the MAPKi treatment course” value (FIGS. 4T and 4U) is given as “completely lost”.

`O=c1cc(N2CCOCC2)oc2c1ccc1ccccc12` [NU7026]: the “suppression of resistance with delayed co-treatment” value is given as “reduced the suppression of resistance”; the “sensitivity of M249 parental cell line to resistance suppression” value was “highly sensitive to resistance suppression”; the “prevention of DTPP formation / suppression of acquired MAPKi resistance” value was “synergistically and dose-dependently prevented DTPP formation in all parental cell lines tested”. In addition, the “efficacy of co-treatment during the first half of the MAPKi treatment course” value (M229 (day 1-14) and M245 (day 1-15), FIGS. 4T and 4U) is given as “remititive”. Moreover, the “efficacy of co-treatment during the second half of the MAPKi treatment course” value (FIGS. 4T and 4U) was “partially remititive”. Also, the “prevention of DTPP formation / suppression of acquired MAPKi resistance” value (listed as DNA-PKi) is given as “generally more effective than PARPi in preventing acquired resistance”.

The record behind these values is patent publication US20260240842A1, “METHODS TO PREVENT THERAPY RESISTANCE IN MELANOMA VIA BLOCKING GENOMIC INSTABILITY” (THE REGENTS OF THE UNIVERSITY OF CALIFORNIA, priority 2022, published 2026).
